Data published in article PMC9386018, “A lymphatic-absorbed multi-targeted kinase inhibitor for myelofibrosis therapy” (Nature Communications, 2022).
“And” between values parts separate entries of the source, which are not always exact repeats. Equal entries are not always repeated.

Test: Pharmacokinetic analysis of plasma after intravenous and oral dosing
Conditions: for concentration at 0.167 h / concentration at 0.5 h / concentration at 1 h / concentration at 2 h / concentration at 4 h / concentration at 7 h / concentration at 16 h: female, CD-1, mouse, plasma
Method: Samples were centrifuged at 15,000 rpm for 10 min, then blood plasma was collected from the upper layer and frozen at −80 °C until analysis. […] Sample processing, chromatographic separation, MS, and MS/MS parameters used for analysis were determined by the core. […] Standard curves for peak area ratio of compound to internal standard (Astd/AIstd) vs. compound concentration were used to determine sample analyte concentrations through linear regression with a weighting average of 1/X^2. […] All pharmacokinetic parameters were estimated using non-compartmental analysis with Phoenix/WINONLIN, and provided by the core along with calculated sample analyte concentrations. Data was generated from n ≥ 3 individual animals sampled per time point per compound for each method of dosing.

Concentration (Supplementary Figure 6a, i.v., Time 0.167 h, individual replicates): 779 ng/mL and 846 ng/mL
Concentration (Supplementary Figure 6a, i.v., Time 0.5 h, individual replicates): 677 ng/mL and 624 ng/mL
Concentration (Supplementary Figure 6a, i.v., Time 1 h, individual replicates): 440 ng/mL and 492 ng/mL
Concentration (Supplementary Figure 6a, i.v., Time 2 h, individual replicates): 490 ng/mL and 355 ng/mL
Concentration (Supplementary Figure 6a, i.v., Time 4 h, individual replicates): 243 ng/mL and 164 ng/mL
Concentration (Supplementary Figure 6a, i.v., Time 7 h, individual replicates): 72.7 ng/mL and 57.8 ng/mL
Concentration (Supplementary Figure 6a, i.v., Time 16 h, individual replicates): 4.08 ng/mL
Concentration (Supplementary Figure 6a, i.v., Time 24 h, individual replicates): 5.08 ng/mL and 1.82 ng/mL and 2.98 ng/mL
Concentration (Supplementary Figure 6a, p.o., Time 0.167 h, individual replicates): 507 ng/mL and 993 ng/mL and 283 ng/mL
Concentration (Supplementary Figure 6a, p.o., Time 0.5 h, individual replicates): 891 ng/mL and 764 ng/mL
Concentration (Supplementary Figure 6a, p.o., Time 1 h, individual replicates): 1540 ng/mL and 1240 ng/mL
Concentration (Supplementary Figure 6a, p.o., Time 2 h, individual replicates): 490 ng/mL and 399 ng/mL
Concentration (Supplementary Figure 6a, p.o., Time 4 h, individual replicates): 412 ng/mL and 334 ng/mL
Concentration (Supplementary Figure 6a, p.o., Time 7 h, individual replicates): 463 ng/mL and 555 ng/mL
Concentration (Supplementary Figure 6a, p.o., Time 16 h, individual replicates): 362 ng/mL and 491 ng/mL
Concentration (Supplementary Figure 6a, p.o., Time 24 h, individual replicates): 443 ng/mL and 223 ng/mL and 212 ng/mL
concentration at 0.167 h (iv, 15 mg kg^−1, Concentration, Supplementary Figure 6a, Time 0.167 h, individual replicates): 934 ng/mL
concentration at 0.5 h (iv, 15 mg kg^−1, Concentration, Supplementary Figure 6a, Time 0.5 h, individual replicates): 923 ng/mL
concentration at 1 h (iv, 15 mg kg^−1, Concentration, Supplementary Figure 6a, Time 1 h, individual replicates): 602 ng/mL
concentration at 2 h (iv, 15 mg kg^−1, Concentration, Supplementary Figure 6a, Time 2 h, individual replicates): 572 ng/mL
concentration at 4 h (iv, 15 mg kg^−1, Concentration, Supplementary Figure 6a, Time 4 h, individual replicates): 282 ng/mL
concentration at 7 h (iv, 15 mg kg^−1, Concentration, Supplementary Figure 6a, Time 7 h, individual replicates): 99.2 ng/mL
concentration at 16 h (iv, 15 mg kg^−1, Concentration, Supplementary Figure 6a, Time 16 h, individual replicates): 7.87 ng/mL
concentration at 0.167 h (iv, 15 mg kg^−1, Concentration, Time 0.167 h, individual animals, Supplementary Figure 12a): 306 ng/mL
concentration at 0.167 h (iv, 15 mg kg^−1, Concentration, Time 0.167 h, individual animals, Supplementary Figure 12b): 641 ng/mL
concentration at 0.5 h (iv, 15 mg kg^−1, Concentration, Time 0.5 h, individual animals, Supplementary Figure 12a): 175 ng/mL
concentration at 0.5 h (iv, 15 mg kg^−1, Concentration, Time 0.5 h, individual animals, Supplementary Figure 12b): 938 ng/mL
concentration at 1 h (iv, 15 mg kg^−1, Concentration, Time 1 h, individual animals, Supplementary Figure 12a): 146 ng/mL
concentration at 1 h (iv, 15 mg kg^−1, Concentration, Time 1 h, individual animals, Supplementary Figure 12b): 783 ng/mL
concentration at 2 h (iv, 15 mg kg^−1, Concentration, Time 2 h, individual animals, Supplementary Figure 12a): 86.8 ng/mL
concentration at 2 h (iv, 15 mg kg^−1, Concentration, Time 2 h, individual animals, Supplementary Figure 12b): 510 ng/mL
concentration at 4 h (iv, 15 mg kg^−1, Concentration, Time 4 h, individual animals, Supplementary Figure 12b): 322 ng/mL
concentration at 7 h (iv, 15 mg kg^−1, Concentration, Time 7 h, individual animals, Supplementary Figure 12a): 22.8 ng/mL
concentration at 0.167 h (po, 200 mg kg^−1, Concentration, Time 0.167 h, individual animals, Supplementary Figure 12a): 155 ng/mL
concentration at 0.5 h (po, 200 mg kg^−1, Concentration, Time 0.5 h, individual animals, Supplementary Figure 12a): 968 ng/mL
concentration at 0.5 h (po, 200 mg kg^−1, Concentration, Time 0.5 h, individual animals, Supplementary Figure 12b): 692 ng/mL
concentration at 1 h (po, 200 mg kg^−1, Concentration, Time 1 h, individual animals, Supplementary Figure 12b): 841 ng/mL
concentration at 2 h (po, 200 mg kg^−1, Concentration, Time 2 h, individual animals, Supplementary Figure 12a): 2500 ng/mL
concentration at 4 h (po, 200 mg kg^−1, Concentration, Time 4 h, individual animals, Supplementary Figure 12a): 3420 ng/mL
concentration at 7 h (po, 200 mg kg^−1, Concentration, Time 7 h, individual animals, Supplementary Figure 12a): 1870 ng/mL
concentration at 7 h (po, 200 mg kg^−1, Concentration, Time 7 h, individual animals, Supplementary Figure 12b): 1070 ng/mL
concentration at 16 h (po, 200 mg kg^−1, Concentration, Time 16 h, individual animals, Supplementary Figure 12b): 2410 ng/mL
concentration at 0.5 h (po, 400 mg kg^−1, Concentration, Supplementary Figure 6a, Time 0.5 h, individual replicates): 644 ng/mL
concentration at 1 h (po, 400 mg kg^−1, Concentration, Supplementary Figure 6a, Time 1 h, individual replicates): 1700 ng/mL
concentration at 2 h (po, 400 mg kg^−1, Concentration, Supplementary Figure 6a, Time 2 h, individual replicates): 787 ng/mL
concentration at 4 h (po, 400 mg kg^−1, Concentration, Supplementary Figure 6a, Time 4 h, individual replicates): 398 ng/mL
concentration at 7 h (po, 400 mg kg^−1, Concentration, Supplementary Figure 6a, Time 7 h, individual replicates): 473 ng/mL
concentration at 16 h (po, 400 mg kg^−1, Concentration, Supplementary Figure 6a, Time 16 h, individual replicates): 572 ng/mL
Concentration (i.v., Time 0.167 h, individual animals, Supplementary Figure 12a): 324 ng/mL and 426 ng/mL
Concentration (i.v., Time 0.5 h, individual animals, Supplementary Figure 12a): 148 ng/mL and 180 ng/mL
Concentration (i.v., Time 1 h, individual animals, Supplementary Figure 12a): 168.8 ng/mL and 187.8 ng/mL
Concentration (i.v., Time 1 h, individual animals, Supplementary Figure 12b): 1480 ng/mL and 1110 ng/mL
Concentration (i.v., Time 2 h, individual animals, Supplementary Figure 12a): 50 ng/mL and 64 ng/mL
Concentration (i.v., Time 2 h, individual animals, Supplementary Figure 12b): 498 ng/mL and 604 ng/mL
Concentration (i.v., Time 4 h, individual animals, Supplementary Figure 12a): 45.8 ng/mL and 21 ng/mL and 26 ng/mL
Concentration (i.v., Time 4 h, individual animals, Supplementary Figure 12b): 244 ng/mL and 464 ng/mL
Concentration (i.v., Time 7 h, individual animals, Supplementary Figure 12a): 12.78 ng/mL
Concentration (i.v., Time 7 h, individual animals, Supplementary Figure 12b): 206 ng/mL and 134 ng/mL and 272 ng/mL
Concentration (i.v., Time 16 h, individual animals, Supplementary Figure 12b): 25.9 ng/mL and 66.9 ng/mL and 61.2 ng/mL
Concentration (i.v., Time 24 h, individual animals, Supplementary Figure 12b): 6.26 ng/mL and 32.6 ng/mL and 25 ng/mL
Concentration (p.o., Time 0.167 h, individual animals, Supplementary Figure 12b): 181 ng/mL
Concentration (p.o., Time 0.5 h, individual animals, Supplementary Figure 12a): 788 ng/mL and 600 ng/mL
Concentration (p.o., Time 2 h, individual animals, Supplementary Figure 12a): 2100 ng/mL and 1302 ng/mL
Concentration (p.o., Time 4 h, individual animals, Supplementary Figure 12a): 2980 ng/mL and 1762 ng/mL
Concentration (p.o., Time 7 h, individual animals, Supplementary Figure 12a): 1768 ng/mL and 1234 ng/mL
Concentration (p.o., Time 16 h, individual animals, Supplementary Figure 12a): 414 ng/mL and 996 ng/mL and 1288 ng/mL
Concentration (p.o., Time 24 h, individual animals, Supplementary Figure 12a): 996 ng/mL and 508 ng/mL and 280 ng/mL
Structure (SMILES): O=C(O)c1ccc(F)c(F)c1Nc1ccc(I)cc1F [PD315209, reference compound]
Concentration (p.o., Time 0.167 h, individual animals, Supplementary Figure 12a): 145.8 ng/mL and 107.6 ng/mL and 206 ng/mL and 132.6 ng/mL and 193 ng/mL
Concentration (p.o., Time 1 h, individual animals, Supplementary Figure 12a): 1006 ng/mL and 784 ng/mL and 260 ng/mL and 1464 ng/mL and 1172 ng/mL and 1344 ng/mL
